Consider 29 compounds from US20020002170A1, “Piperidine and piperazine derivatives as inhibitors of the abeta fibril formation” (priority 1999, published 2002).

Where a name gives a salt, the structure may show the parent alone.

Regarding `COc1ccc(C2(c3ccc(OC)cc3)CCN(CC[C@@H]3C=C4c5cccc6[nH]cc(c56)C[C@H]4N(C)C3)CC2)cc1`, the melting point (in general, the temperature, or range, at which the solid turns liquid) is 184 to 187 °C (dec.).

For `CN1C[C@H](CCN2CCC(O)(c3ccc(Cl)cc3)CC2)C=C2c3cccc4[nH]cc(c34)C[C@H]21`, the melting point lay within 154 to 157 °C.

`CN1C[C@H](CCN2CCN(C(c3ccccc3)c3ccccc3)CC2)C=C2c3cccc4[nH]cc(c34)C[C@H]21` showed a melting point of 165 to 169 °C.

In the case of `CN1C[C@H](CN2CCN(C(c3ccccc3)c3ccccc3)CC2)C=C2c3cccc4[nH]cc(c34)C[C@H]21`, the melting point was > 200 °C (dec.).

Take `CN1C[C@H](CN2CCC(O)(c3ccc(Cl)cc3)CC2)C=C2c3cccc4c3c(cn4C)C[C@H]21`: the melting point fell in the range of 101 to 107 °C.

`CN1C[C@H](CN2CCN(C(c3ccccc3)c3ccccc3)CC2)C=C2c3cccc4c3c(cn4C)C[C@H]21` had a melting point of 172 to 175 °C.

Take `COc1ccc(C2(c3ccc(OC)cc3)CCN(C[C@@H]3C=C4c5cccc6[nH]c(Cl)c(c56)C[C@H]4N(C)C3)CC2)cc1`: the melting point is > 204 °C (dec.).

Regarding `CN1C[C@H](CN2CCC(O)(c3ccc(Cl)cc3)CC2)C=C2c3cccc4[nH]c(Cl)c(c34)C[C@H]21`, the melting point is > 192 °C (dec.).

For the compound `CN1C[C@H](CN2CCN(C(c3ccccc3)c3ccccc3)CC2)C=C2c3cccc4[nH]c(Cl)c(c34)C[C@H]21`, the melting point is 208 °C (dec.).

`CN1C[C@H](CN2CCN(C(c3ccccc3)c3ccccc3)CC2)C[C@@H]2c3cccc4[nH]cc(c34)C[C@H]21` returned a melting point of 230 to 233 °C.

As to `CN1C[C@H](CN2CCN(C(c3ccccc3)c3ccccc3)CC2)C[C@@H]2c3cccc4[nH]c(Cl)c(c34)C[C@H]21`, the melting point was 250 °C (dec.).

For `CN1C[C@H](CN2CCN(C(c3ccccc3)c3ccccc3)CC2)C[C@@H]2c3cccc4[nH]c(Br)c(c34)C[C@H]21`, the melting point was 255 °C (dec.).

Consider `CCN1C[C@H](CN2CCN(C(c3ccccc3)c3ccccc3)CC2)C[C@@H]2c3cccc4[nH]cc(c34)C[C@H]21`, for which the melting point is 203 to 205 °C.

The compound `CN1C[C@H](CCN2CCN(C(c3ccccc3)c3ccccc3)CC2)C[C@@H]2c3cccc4[nH]cc(c34)C[C@H]21` displayed a melting point of 206 to 212 °C.

Regarding `COc1ccc(C2(c3ccc(OC)cc3)CCN(C[C@H]3CN(C)[C@@H]4Cc5c[nH]c6cccc(c56)[C@@]4(OC)C3)CC2)cc1`, the melting point was in the range of 215 to 222 °C.

Turning to `CO[C@]12C[C@@H](CN3CCC(O)(c4ccc(Cl)cc4)CC3)CN(C)[C@@H]1Cc1c[nH]c3cccc2c13`, the melting point lay within 144 to 148 °C.

`CO[C@]12C[C@@H](CN3CCC(O)(c4cccc(C(F)(F)F)c4)CC3)CN(C)[C@@H]1Cc1c[nH]c3cccc2c13` had a melting point of 135 to 140 °C.

`CO[C@]12C[C@@H](CN3CCC(O)(c4ccc(Cl)c(C(F)(F)F)c4)CC3)CN(C)[C@@H]1Cc1c[nH]c3cccc2c13` registered a melting point of 143 to 146 °C.

`COc1ccc(C2(c3ccc(OC)cc3)CCN(CC[C@H]3CN(C)[C@@H]4Cc5c[nH]c6cccc(c56)[C@@]4(OC)C3)CC2)cc1` gave a melting point of 129 to 136 °C.

`CO[C@]12C[C@@H](CCN3CCC(O)(c4ccc(Cl)cc4)CC3)CN(C)[C@@H]1Cc1c[nH]c3cccc2c13` gave a melting point of 133 to 139 °C.

As for `CO[C@]12C[C@@H](CCN3CCN(C(c4ccccc4)c4ccccc4)CC3)CN(C)[C@@H]1Cc1c[nH]c3cccc2c13`, the melting point was determined as 130 °C.

Consider `COc1cccc2c1C[C@H]1C[C@@H](CN3CCC(O)(c4ccc(Cl)cc4)CC3)CN(C)[C@@H]1C2`, for which the melting point fell in the range of 202 to 204 °C.

`COc1ccc(C2(c3ccc(OC)cc3)CCN(C[C@@H]3C[C@@H]4Cc5c(cccc5OC)C[C@H]4N(C)C3)CC2)cc1` (as salt: fumarate): the melting point lay within 216 to 219 °C.

The compound `COc1ccc(C2(c3ccc(OC)cc3)CCN(CC[C@@H]3C[C@@H]4Cc5c(cccc5OC)C[C@H]4N(C)C3)CC2)cc1` (as salt: succinate) displayed a melting point of 138 to 142 °C.

`COc1cccc2c1C[C@H]1C[C@@H](CCN3CCC(O)(c4ccc(Cl)cc4)CC3)CN(C)[C@@H]1C2` (as salt: succinate) yielded a melting point of 212 to 215 °C.

Consider `COc1ccc(C2(c3ccc(OC)cc3)CCN(C[C@H]3CN(C)[C@@H]4Cc5c(Br)[nH]c6cccc(c56)[C@@]4(OC)C3)CC2)cc1` (as salt: tartrate), for which the melting point fell in the range of 167 to 172 °C.

As to `COc1cccc2c1C[C@H]1C[C@@H](CCN3CCN(C(c4ccccc4)c4ccccc4)CC3)CN(C)[C@@H]1C2` [Example 5, [3S,4aR,10aR]-3-[2-(4-Benzhydryl-piperazin-1-yl)-ethyl]-6-methoxy-1-methyl-1,2,3,4,4a,5,10,10a-octahydro-benzo[g]quinoline], the melting point fell in the range of 140 to 148 °C.

Compound `COc1cccc2c1C[C@H]1C[C@@H](CN3CCN(C(c4ccccc4)c4ccccc4)CC3)CN(C)[C@@H]1C2` [Example 10, [3S,4aR,10aR]-3-(4-Benzhydryl-piperazin-1-ylmethyl)-6-methoxy-1-methyl-1,2,3,4,4a,5,10,10a-octahydro-benzo[g]quinoline] registered a melting point of 278 to 280 °C.

For the compound `COc1cccc2c1C[C@H]1C[C@@H](CN3CCC(NC(=O)C(c4ccccc4)c4ccccc4)CC3)CN(C)[C@@H]1C2` [Example 12, N-[1-((3S,4aR,10aR)-6-Methoxy-1-methyl-1,2,3,4,4a,5,10,10a-octahydro-benzo[g]quinolin-3-ylmethyl)-piperidin-4-yl]-2,2-diphenyl-acetamide], the melting point lay in the range of 219 to 222 °C.
